The results in this text go back to patent US10023570B2 (Array BioPharma, Inc., priority 2015, dated 2018).

One may read the IC50 as the midpoint of a concentration-inhibition curve.

The target of test [1] is Kif5b-RET fusion protein in HEK-293 cells (Homo sapiens, UniProt P07949). The experiment in a line: cell-based. The procedure: The cellular potency of a compound inhibiting RET kinase was determined in HEK-293 cells expressing a Kif5b-RET fusion protein. Briefly, HEK-293 cells expressing a Kif5b-RET fusion protein were plated at 50K cells/well in 96 well poly-D-Lysine coated plates the day prior to the assay. The cells were incubated for 1 hour with test compound in DMEM (Dulbecco's Modified Eagle Medium) at a final DMSO concentration of 0.5%. […] After 1 hour the media was removed, the cells were fixed with 3.8% formaldehyde for 20 min, washed with PBS, and permeabilized for 10 min with 100% methanol. […] All antibodies were diluted in LI-COR Block containing 0.05% Tween. The plates were washed with PBS-0.05% Tween20, 100 μL PBS was added to each well, and the plates were read on a LI-COR Aerius fluorescent plate reader. The phospho-RET signal was normalized to the GAPDH signal. […] The IC50 value is the point where the curve crosses 50 POC.
Kif5b-RET fusion protein in HEK-293 cells, sequence (P07949 29-1114 limits assumed): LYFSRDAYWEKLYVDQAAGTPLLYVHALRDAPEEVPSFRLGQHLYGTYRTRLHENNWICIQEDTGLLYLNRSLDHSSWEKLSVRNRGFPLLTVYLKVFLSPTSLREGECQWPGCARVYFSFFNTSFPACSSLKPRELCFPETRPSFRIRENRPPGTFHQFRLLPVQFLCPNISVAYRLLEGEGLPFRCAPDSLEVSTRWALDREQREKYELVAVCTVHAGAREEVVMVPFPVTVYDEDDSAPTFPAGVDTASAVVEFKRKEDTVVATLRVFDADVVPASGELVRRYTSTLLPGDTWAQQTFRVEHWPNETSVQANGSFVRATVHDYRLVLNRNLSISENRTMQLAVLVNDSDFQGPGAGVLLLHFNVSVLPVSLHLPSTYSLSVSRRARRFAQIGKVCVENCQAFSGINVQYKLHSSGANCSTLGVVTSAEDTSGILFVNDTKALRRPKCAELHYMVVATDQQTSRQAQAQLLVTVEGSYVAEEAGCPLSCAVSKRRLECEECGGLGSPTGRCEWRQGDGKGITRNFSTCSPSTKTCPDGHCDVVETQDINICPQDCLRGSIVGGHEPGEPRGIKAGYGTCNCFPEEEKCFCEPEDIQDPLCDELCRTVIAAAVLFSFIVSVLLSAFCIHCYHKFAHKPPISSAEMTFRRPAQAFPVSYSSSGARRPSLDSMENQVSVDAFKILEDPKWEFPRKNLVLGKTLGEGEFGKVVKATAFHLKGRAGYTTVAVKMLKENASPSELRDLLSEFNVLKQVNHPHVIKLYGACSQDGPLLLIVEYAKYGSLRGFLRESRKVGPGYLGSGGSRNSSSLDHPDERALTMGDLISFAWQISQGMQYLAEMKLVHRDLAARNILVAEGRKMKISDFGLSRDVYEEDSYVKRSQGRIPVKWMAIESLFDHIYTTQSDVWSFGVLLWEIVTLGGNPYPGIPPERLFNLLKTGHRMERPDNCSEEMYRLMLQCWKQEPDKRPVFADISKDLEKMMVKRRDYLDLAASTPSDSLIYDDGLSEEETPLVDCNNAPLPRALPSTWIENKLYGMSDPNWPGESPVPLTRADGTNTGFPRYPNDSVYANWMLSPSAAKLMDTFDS

For test [2], the target named is N-terminal GST tagged recombinant human RET cytoplasmic domain (aa 658-end), wild type RET kinase (Homo sapiens (Human), UniProt P07949). The experiment in a line: RET Enzyme Assay (HTRF KinEASE-TK), wild type RET. The class given is biochemical. Background: In TR-FRET formats the signal depends on donor and acceptor labels being close together.
N-terminal GST tagged recombinant human RET cytoplasmic domain (aa 658-end), wild type RET kinase, sequence (P07949 658-1114): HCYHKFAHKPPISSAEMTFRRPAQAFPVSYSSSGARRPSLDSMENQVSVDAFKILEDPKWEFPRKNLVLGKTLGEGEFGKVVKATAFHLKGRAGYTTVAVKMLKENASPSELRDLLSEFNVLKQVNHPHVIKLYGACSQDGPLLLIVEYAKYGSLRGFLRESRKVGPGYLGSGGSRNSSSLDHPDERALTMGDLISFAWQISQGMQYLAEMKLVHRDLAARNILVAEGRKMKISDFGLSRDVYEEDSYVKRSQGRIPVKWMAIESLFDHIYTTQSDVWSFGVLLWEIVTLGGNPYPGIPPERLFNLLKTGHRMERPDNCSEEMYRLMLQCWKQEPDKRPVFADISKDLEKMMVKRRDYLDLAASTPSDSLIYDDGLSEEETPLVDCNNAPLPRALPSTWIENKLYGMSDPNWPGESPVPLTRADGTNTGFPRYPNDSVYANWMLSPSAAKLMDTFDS
Where [3] appears, read: HEK-293 cells expressing Kif5b-RET, read-out: KIF5B-RET pTYR1062 Cell IC50.
The mark [4] stands for this setting: HEK-293 cells expressing Kif5b-RET, phospho-RET(Tyr1062), read-out: KIF5B-RET pTYR1062 Cell IC50.

Like-named read-outs stand apart in the source and are kept apart here.

On to `CCc1nn(CC)cc1-c1cc(-c2ccc(N3CCN(Cc4ccccc4)CC3)nc2)c2c(C#N)cnn2c1` [Example 615, 4-(6-(4-benzylpiperazin-1-yl)pyridin-3-yl)-6-(1,3-diethyl-1H-pyrazol-4-yl)pyrazolo[1,5-a]pyridine-3-carbonitrile], for which the IC50 in test [1] is 117 nM; in test [2] (wild type RET, 1 mM ATP), 60 nM.

For `CCc1cnn2cc(-c3cnn(C)c3)cc(-c3ccc(N4CCNCC4)nc3)c12` [Example 657, 3-ethyl-6-(1-methyl-1H-pyrazol-4-yl)-4-(6-(piperazin-1-yl)pyridin-3-yl)pyrazolo[1,5-a]pyridine], the IC50 in test [1] (setting [3]) worked out at 215 nM; in test [2] (wild type RET, 1 mM ATP), 140 nM.

As for `CC(C)C(O)CN1CCN(c2ccc(-c3cc(-c4cnn(C)c4)cn4ncc(Cl)c34)cn2)CC1` (stereo not shown) [Example 648, 1-(4-(5-(3-chloro-6-(1-methyl-1H-pyrazol-4-yl)pyrazolo[1,5-a]pyridin-4-yl)pyridine-2-yl)piperazin-1-yl)-3-methylbutan-2-ol], the IC50 in test [1] was found to be 183 nM; in test [2] (wild type RET, 1 mM ATP) it was 34.1 nM.

For `Cn1cc(-c2cc(-c3ccc(N4CCN(C(=O)OC(C)(C)C)CC4)nc3)c3c(C#N)cnn3c2)cn1` [Example 1, tert-butyl 4-(5-(3-cyano-6-(1-methyl-1H-pyrazol-4-yl)pyrazolo[1,5-a]pyridin-4-yl)pyridin-2-yl)piperazine-1-carboxylate], the 50% inhibitory concentration (IC50) in test [1] (setting [4]) was 47.5 nM; in test [2] (wild type RET, 1 mM ATP), 35.8 nM.

In the case of `COc1ccc(CN2CCN(c3ccc(-c4cc(-c5cnn(CCOC(C)C)c5)cn5ncc(C#N)c45)cn3)CC2)cn1` [Example 704, 6-(1-(2-isopropoxyethyl)-1H-pyrazol-4-yl)-4-(6-(4-((6-methoxypyridin-3-yl)methyl)piperazin-1-yl)pyridin-3-yl)pyrazolo[1,5-a]pyridine-3-carbonitrile], the IC50 was 8.3 nM in test [1] and 30.1 nM in test [2] (wild type RET, 1 mM ATP).

Regarding `COc1ccc(CN2CCN(c3ccc(-c4cc(-c5cnn(CCS(=O)(=O)C(C)C)c5)cn5ncc(C#N)c45)cn3)CC2)cn1` [Example 703, 6-(1-(2-(isopropylsulfonyl)ethyl)-1H-pyrazol-4-yl)-4-(6-(4-((6-methoxypyridin-3-yl)methyl)piperazin-1-yl)pyridin-3-yl)pyrazolo[1,5-a]pyridine-3-carbonitrile], the half-maximal inhibitory concentration (IC50) in test [1] (setting [3]) came to 9.8 nM; in test [2] (wild type RET, 1 mM ATP), 16.4 nM.

Regarding `COC(CN1CCN(c2ccc(-c3cc(-c4cnn(C)c4)cn4ncc(C#N)c34)cn2)CC1)C(C)(C)C` (stereo not shown) [Example 417, 4-(6-(4-(2-methoxy-3,3-dimethylbutyl)piperazin-1-yl)pyridin-3-yl)-6-(1-methyl-1H-pyrazol-4-yl)pyrazolo[1,5-a]pyridine-3-carbonitrile], the 50% inhibitory concentration (IC50) turned out to be 48.5 nM in test [1] (setting [3]) and 37.1 nM in test [2] (wild type RET, 1 mM ATP).

On to `Cn1cc(-c2cc(-c3ccc(N4CCN(Cc5ccccc5)CC4)nc3)c3c(Cl)cnn3c2)cn1` [Example 647, 4-(6-(4-benzylpiperazin-1-yl)pyridine-3-yl)-3-chloro-6-(1-methyl-1H-pyrazol-4-yl)pyrazolo[1,5-a]pyridine], for which the half-maximal inhibitory concentration (IC50) in test [1] (setting [3]) stood at 63 nM; in test [2] (wild type RET, 1 mM ATP), 34.4 nM.

Take `COc1ccc(CN2CCN(c3ccc(-c4cc(-c5cnn(C)c5)cn5ncc(Cl)c45)cn3)CC2)cn1` [Example 742, 3-chloro-4-(6-(4-((6-methoxypyridin-3-yl)methyl)piperazin-1-yl)pyridin-3-yl)-6-(1-methyl-1H-pyrazol-4-yl)pyrazolo[1,5-a]pyridine]: the IC50 in test [1] worked out at 38.5 nM; in test [2] (wild type RET, 1 mM ATP) it was 37.3 nM.

For `COc1ccc(CN2CCN(c3ccc(-c4cc(-c5cn[nH]c5)cn5ncc(C#N)c45)cn3)CC2)cn1` [Example 698, 4-(6-(4-((6-methoxypyridin-3-yl)methyl)piperazin-1-yl)pyridin-3-yl)-6-(1H-pyrazol-4-yl)pyrazolo[1,5-a]pyridine-3-carbonitrile], the IC50 in test [1] (setting [3]) came to 12.4 nM; in test [2] (wild type RET, 1 mM ATP), 6.7 nM.

As for `COc1cc(C)c(CN2CCN(c3ccc(-c4cc(-c5cnn(C)c5)cn5ncc(C#N)c45)cn3)CC2)cn1` [Example 672, 4-(6-(4-((6-methoxy-4-methylpyridin-3-yl)methyl)piperazin-1-yl)pyridin-3-yl)-6-(1-methyl-1H-pyrazol-4-yl)pyrazolo[1,5-a]pyridine-3-carbonitrile], the IC50 in test [1] (setting [3]) came out at 17.3 nM; in test [2] (wild type RET, 1 mM ATP) it was 19.3 nM.

In the case of `CC(O)CN(C)C(=O)C1CCN(c2ccc(-c3cc(-c4cnn(C)c4)cn4ncc(C#N)c34)cn2)CC1` (stereo not shown) [Example 245, 1-(5-(3-cyano-6-(1-methyl-1H-pyrazol-4-yl)pyrazolo[1,5-a]pyridin-4-yl)pyridin-2-yl)-N-(2-hydroxypropyl)-N-methylpiperidine-4-carboxamide], the IC50 in test [1] (setting [4]) stood at 191 nM; in test [2] (wild type RET, 1 mM ATP) it was 30.2 nM.

With `COc1ccc(CN2CCN(c3ccc(-c4cc(-c5cnn(CC(C)CO)c5)cn5ncc(C#N)c45)cn3)CC2)cn1` (stereo in doubt) [Example 707, (R)-6-(1-(3-hydroxy-2-methylpropyl)-1H-pyrazol-4-yl)-4-(6-(4-((6-methoxypyridin-3-yl)methyl)piperazin-1-yl)pyridin-3-yl)pyrazolo[1,5-a]pyridine-3-carbonitrile], the concentration for half-maximal inhibition (IC50) turned out to be 6.5 nM in test [1] (setting [3]) and 20.1 nM in test [2] (wild type RET, 1 mM ATP).

For `COc1ccc(CN2CCN(c3ccc(-c4cc(-c5cnn(C)c5)cn5ncc(C)c45)cn3)CC2)cn1` [Example 744, 4-(6-(4-((6-methoxypyridin-3-yl)methyl)piperazin-1-yl)pyridin-3-yl)-3-methyl-6-(1-methyl-1H-pyrazol-4-yl)pyrazolo[1,5-a]pyridine], the half-inhibitory concentration (IC50) in test [1] was 66.3 nM; in test [2] (wild type RET, 1 mM ATP), 46.2 nM.

For `Cn1cc(-c2cc(-c3ccc(N4CCN(C(=O)OC(C)(C)C)CC4)nc3)c3c(Cl)cnn3c2)cn1` [Example 325, tert-butyl 4-(5-(3-chloro-6-(1-methyl-1H-pyrazol-4-yl)pyrazolo[1,5-a]pyridin-4-yl)pyridin-2-yl)piperazine-1-carboxylate], the half-maximal inhibitory concentration (IC50) stood at 742 nM in test [1] (setting [4]) and 372 nM in test [2] (wild type RET, 1 mM ATP).

Turning to `COc1ccc(CN2CCN(c3ncc(-c4cc(-c5cnn(C)c5)cn5ncc(C#N)c45)cc3F)CC2)cn1` [Example 736, 4-(5-fluoro-6-(4-((6-methoxypyridin-3-yl)methyl)piperazin-1-yl)pyridin-3-yl)-6-(1-methyl-1H-pyrazol-4-yl)pyrazolo[1,5-a]pyridine-3-carbonitrile], the IC50 amounted to 67.4 nM in test [1] and 35.1 nM in test [2] (wild type RET, 1 mM ATP).

As to `CNC(=O)N1CCN(c2ccc(-c3cc(-c4cnn(C)c4)cn4ncc(C#N)c34)cn2)CC1` [Example 387, 4-(5-(3-cyano-6-(1-methyl-1H-pyrazol-4-yl)pyrazolo[1,5-a]pyridin-4-yl)pyridin-2-yl)-N-methylpiperazine-1-carboxamide], the concentration for half-maximal inhibition (IC50) was determined as 53.2 nM in test [1] and 25.1 nM in test [2] (wild type RET, 1 mM ATP).

On to `COc1ccc(CN2CCN(c3ccc(-c4cc(-c5cnn(CC(C)(C)O)c5)cn5ncc(C#N)c45)cn3)CC2)cn1` [Example 702, 6-(1-(2-hydroxy-2-methylpropyl)-1H-pyrazol-4-yl)-4-(6-(4-((6-methoxypyridin-3-yl)methyl)piperazin-1-yl)pyridin-3-yl)pyrazolo[1,5-a]pyridine-3-carbonitrile], for which the IC50 in test [1] (setting [3]) amounted to 5.6 nM; in test [2] (wild type RET, 1 mM ATP), 15.3 nM.

On to `Cn1cc(-c2cc(-c3ccc(N4CCN(Cc5ccc(OC(F)F)nc5)CC4)nc3)c3c(C#N)cnn3c2)cn1` [Example 675, 4-(6-(4-((6-(difluoromethoxy)pyridin-3-yl)methyl)piperazin-1-yl)pyridin-3-yl)-6-(1-methyl-1H-pyrazol-4-yl)pyrazolo[1,5-a]pyridine-3-carbonitrile], for which the IC50 in test [1] (setting [3]) stood at 24.1 nM; in test [2] (wild type RET, 1 mM ATP) it was 13.6 nM.

Consider `CN(C)C(=O)C1CCN(c2ccc(-c3cc(-c4cnn(C)c4)cn4ncc(C#N)c34)cn2)CC1` [Example 562, 1-(5-(3-cyano-6-(1-methyl-1H-pyrazol-4-yl)pyrazolo[1,5-a]pyridine-4-yl)pyridine-2-yl)-N,N-dimethylpiperidine-4-carboxamide 2,2,2-trifluoroacetate], for which the IC50 in test [1] (setting [3]) came to 58.6 nM; in test [2], 56 nM.

Regarding `CC[C@@H](CO)NC(=O)N1CCN(c2ccc(-c3cc(-c4cnn(C)c4)cn4ncc(C#N)c34)cn2)CC1` [Example 122, (S)-4-(5-(3-cyano-6-(1-methyl-1H-pyrazol-4-yl)pyrazolo[1,5-a]pyridin-4-yl)pyridin-2-yl)-N-(1-hydroxybutan-2-yl)piperazine-1-carboxamide], the IC50 was found to be 267 nM in test [1] (setting [4]) and 11.3 nM in test [2] (wild type RET, 1 mM ATP).

As to `Cc1nn(C)c(C)c1-c1cc(-c2ccc(N3CCN(Cc4ccccc4)CC3)nc2)c2c(C#N)cnn2c1` [Example 613, 4-(6-(4-benzylpiperazin-1-yl)pyridin-3-yl)-6-(1,3,5-trimethyl-1H-pyrazol-4-yl)pyrazolo[1,5-a]pyridine-3-carbonitrile], the IC50 stood at 361 nM in test [1] and 122 nM in test [2] (wild type RET, 1 mM ATP).

Take `CN(C)CCC(=O)N1CCN(c2ccc(-c3cc(-c4cnn(C)c4)cn4ncc(C#N)c34)cn2)CC1` [Example 33, 4-(6-(4-(3-(dimethylamino)propanoyl)piperazin-1-yl)pyridin-3-yl)-6-(1-methyl-1H-pyrazol-4-yl)pyrazolo[1,5-a]pyridine-3-carbonitrile bis(2,2,2-trifluoroacetate)]: the concentration for half-maximal inhibition (IC50) in test [1] (read-out: KIF5B-RET pTYR1062 Cell IC50) came to 310 nM; in test [2] (wild type RET, 1 mM ATP) it was 42.9 nM.
